From US20050261365A1, “Transthyretin stabilization” (The Scripps Research Institute, priority 2004, published 2005)
“Also recorded” adds a separate entry of the source.

Columns and labels:
[1] = precipitation of small molecules under acid-mediated amyloidogenic conditions in the absence of TTR; type: physicochemical; conditions: 3.6 μM, pH 4.4, 37° C., 72 h
Method: (§1) TTR amyloid inhibition efficacy was probed using a stagnant fibril formation assay described previously, wherein partial denaturation was triggered by acidification (pH 4.4, 37° C.) (Colon, W.; Kelly, J. W. Biochemistry 1992, 31, 8654-8660). Briefly, a test compound (7.2 or 3.6 μM) is incubated with TTR (3.6 μM) for 30 min in pH 7 buffer. Amyloidogenesis is then initiated by lowering to pH 4.4, where maximal fibril formation is observed with WT-TTR after 72 h (37° C.). […] From experience we know that excellent inhibitors allow <10% fibril formation at a small molecule concentration of 7.2 μM and <40% fibril formation at a concentration equal to that of WT-TTR (3.6 μM) (Hammarstrom, P.; et al. Science 2003, 299, 713-716; Klabunde, T.; et al. Nature Struct. Biol. 2000, 7, 312-321; Razavi, H.; et al. Angew Chem 2003, 42, 2758-2761; Miroy, G. J.; et al. Proc. Natl. Acad. Sci. USA 1996, 93, 15051-15056; Peterson, S. A.; et al. Proc. Natl. Acad. Sci. USA 1998, 95, 12956-12960; Baures, P. W.; et al. Bioorg. Med. Chem. 1998, 6, 1389-1401; Baures, P. W.; et al. Bioorg. Med. Chem. 1999, 7, 1339-1347; Petrassi, H. M.; et al. J. Am. Chem. Soc. 2000, 122, 2178-2192; McCammon, M. G.; et al. Structure 2002, 10, 851-863; Oza, V. B.; et al. J. Med. Chem. 2002, 45, 321-332; Saccheftini, J. C.; et al. Nature Rev. Drug Disc. 2002, 1, 267-275; Green, N. S.; et al. J. Am. Chem. Soc. 2003, 125, 13404-13414; Adamski-Werner, S. L.; et al. J. Med. Chem. 2004, 47, 355-374; Miller Sean, R.; et al. Lab. Inv. 2004, 84, 545-552). […] Therefore, when both the ligand and TTR are at equal concentrations, a population of TTR•I, TTR•I2 and unliganded TTR is observed, dictated by the dissociation constants. It is now established by other studies that inhibitor occupancy of only one of the two TTR binding sites is sufficient to stabilize the entire tetramer against amyloidogenesis (Wiseman, R. L.; et al. J. Am. Chem. Soc. 2005, in press). This is further supported by the observation herein that twenty-six of these dibenzofurans are excellent TTR amyloidogenesis inhibitors (<40% fibril formation) at a concentration equal to that of TTR (3.6 μM each, FIG. 3).

[2] = target: T1, TTR in human blood plasma (Homo sapiens, UniProt P02766); assay: plasma TTR binding selectivity, antibody capture method; conditions: inhibitor 10.8 μM, 24 h, 37° C.
T1 construct: from tissue; host or cells: human blood plasma
Method: Inhibitor binding selectivity to TTR in human blood plasma was assessed using a previously established antibody capture method (Purkey, H. E.; et al. Proc. Natl. Acad. Sci. USA 2001, 98, 5566-5571). In this evaluation, inhibitors (10.8 μM, ˜2-3× the natural concentration of TTR) are incubated in human blood plasma for 24 h at 37° C. Quenched sepharose resin is then added to the plasma to remove any small molecules that would bind to the resin as opposed to TTR. TTR and any TTR-bound small molecule is then immunocaptured using a polyclonal TTR antibody covalently attached to sepharose resin. After washing the resin (5×10 min washes), the antibody-TTR complex is dissociated at high pH and analyzed by RP-HPLC. The relative stoichiometry between TTR and inhibitor is then calculated from their HPLC peak areas using standard curves.
(§2) The procedures used for bacterial expression of TTR (Lai, Z.; et al. Biochemistry 1996, 35, 6470-6482), the stagnant fibril formation assay (Colon, W.; Kelly, J. W. Biochemistry 1992, 31, 8654-8660; Lai, Z.; et al. Biochemistry 1996, 35, 6470-6482), the blood plasma binding selectivity assay (Purkey, H. E.; et al. Proc. Natl. Acad. Sci. USA 2001, 98, 5566-5571), and analytical ultracentrifugation (Lashuel, H. A.; et al. Biochemistry 1998, 37, 17851-17864) have all been described in detail previously.

WT-TTR = target: T2, WT-TTR (Homo sapiens, UniProt P02766); assay: stagnant acid-mediated fibril formation assay (turbidity); type: biochemical; conditions: WT-TTR 3.6 μM; for inhibitor potency against fibril formation: inhibitor 3.6 μM, pH 4.4, 72 h
T2 construct: made in house
Method: as §1, §2

SMILES: O=C(O)c1cccc2c1oc1c(C(=O)O)ccc(Oc3cccc(C(F)(F)F)c3)c12 [Compound 45]
- precipitation in the absence of TTR [1]: no measurable precipitation

SMILES: O=C(O)c1cccc2c1oc1c(C(=O)O)ccc(Nc3cc(C(F)(F)F)cc(C(F)(F)F)c3)c12 [Compound 31]
- binding selectivity to TTR in human blood plasma [2]: all but two (31 and 35) exhibit dramatically increased binding selectivity

SMILES: O=C(O)c1cccc2c1oc1c(C(=O)O)ccc(Nc3cc(Cl)cc(Cl)c3)c12 [Compound 30]
- precipitation in the absence of TTR [1]: no measurable precipitation

SMILES: O=C(O)c1cccc2c1oc1c(C(=O)O)ccc(-c3cc(Cl)cc(Cl)c3)c12 [Compound 63]
- inhibitor potency against fibril formation (WT-TTR): most potent

SMILES: O=C(O)c1cccc2c1oc1c(C(=O)O)ccc(Nc3cccc(C(F)(F)F)c3)c12 [Compound 26]
- precipitation in the absence of TTR [1]: no measurable precipitation

SMILES: O=C(O)c1cccc2c1oc1c(C(=O)O)ccc(-c3ccccc3F)c12 [Compound 67]
- inhibitor potency against fibril formation (WT-TTR): most potent

SMILES: O=C(O)c1cc(Nc2ccc(C(=O)O)c3oc4c(C(=O)O)cccc4c23)cc(C(=O)O)c1 [Compound 34]
- inhibitor potency against fibril formation (WT-TTR): all the inhibitors (except 34) display increased potency
- inhibition of WT-TTR fibril formation (WT-TTR; inhibitor 7.2 μM, pH 4.4, 37° C., 72 h): not as effective; also recorded: all but one (34) completely inhibit fibril formation

SMILES: O=C(O)c1ccc(Nc2ccc(C(=O)O)c3oc4c(C(=O)O)cccc4c23)cc1 [Compound 35]
- binding selectivity to TTR in human blood plasma [2]: all but two (31 and 35) exhibit dramatically increased binding selectivity

SMILES: O=C(O)c1cccc2c1oc1c(C(=O)O)ccc(Nc3ccccc3F)c12 [Compound 36]
- inhibitor potency against fibril formation (WT-TTR): most potent

SMILES: O=C(O)c1cccc(Nc2ccc(C(=O)O)c3oc4c(C(=O)O)cccc4c23)c1 [Compound 33]
- binding selectivity to TTR in human blood plasma [2]: modest
- inhibitor potency against fibril formation (WT-TTR): amongst the most potent

SMILES: O=C(O)c1cccc2c1oc1c(C(=O)O)ccc(-c3cc(F)cc(F)c3)c12 [Compound 62]
- precipitation in the absence of TTR [1]: no measurable precipitation

SMILES: O=C(O)c1cccc(-c2ccc(C(=O)O)c3oc4c(C(=O)O)cccc4c23)c1 [Compound 69]
- binding selectivity to TTR in human blood plasma [2]: modest
- inhibitor potency against fibril formation (WT-TTR): amongst the most potent
